Bounds are passed on as bounds.

As usually defined, the IC50 is the concentration needed to halve the response being measured.

The target in the experiment is T1, human TLR7 (Homo sapiens, UniProt Q9NYK1).
T1 construct: host or cells: HEK-Blue cells
T1 sequence (Q9NYK1 27-1049): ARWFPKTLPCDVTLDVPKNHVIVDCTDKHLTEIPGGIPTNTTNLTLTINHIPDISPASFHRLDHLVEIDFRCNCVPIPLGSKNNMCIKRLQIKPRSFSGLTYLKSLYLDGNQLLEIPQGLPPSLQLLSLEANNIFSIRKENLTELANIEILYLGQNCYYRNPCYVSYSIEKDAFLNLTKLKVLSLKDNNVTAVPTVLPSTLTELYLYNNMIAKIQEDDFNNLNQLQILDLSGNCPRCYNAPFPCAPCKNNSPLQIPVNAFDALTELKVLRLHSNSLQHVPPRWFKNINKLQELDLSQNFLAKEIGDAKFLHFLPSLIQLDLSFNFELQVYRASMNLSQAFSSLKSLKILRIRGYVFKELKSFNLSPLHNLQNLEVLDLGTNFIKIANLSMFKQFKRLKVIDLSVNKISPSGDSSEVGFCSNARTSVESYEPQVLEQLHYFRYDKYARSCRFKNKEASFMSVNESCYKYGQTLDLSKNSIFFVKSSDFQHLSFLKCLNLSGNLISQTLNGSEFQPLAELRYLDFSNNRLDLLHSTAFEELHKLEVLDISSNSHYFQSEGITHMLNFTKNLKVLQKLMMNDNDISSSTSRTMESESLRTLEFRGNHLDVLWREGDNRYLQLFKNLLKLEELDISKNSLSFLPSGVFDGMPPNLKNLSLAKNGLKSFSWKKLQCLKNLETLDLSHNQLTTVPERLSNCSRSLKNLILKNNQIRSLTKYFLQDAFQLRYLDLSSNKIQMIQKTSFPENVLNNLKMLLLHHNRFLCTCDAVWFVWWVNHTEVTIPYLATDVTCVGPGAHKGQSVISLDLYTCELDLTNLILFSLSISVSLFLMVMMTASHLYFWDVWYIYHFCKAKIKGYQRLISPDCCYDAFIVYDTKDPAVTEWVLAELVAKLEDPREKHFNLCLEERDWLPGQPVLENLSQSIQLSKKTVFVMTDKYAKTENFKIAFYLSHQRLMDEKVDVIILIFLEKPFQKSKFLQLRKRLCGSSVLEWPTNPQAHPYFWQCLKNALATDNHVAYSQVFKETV
Nature of the experiment: TLR7 inhibition reporter assay (HEK-Blue cells, SEAP reporter, gardiquimod stimulation). It counts as cell-based. The settings on record: HEK-Blue cells overexpressing human TLR7, gardiquimod 7.5 μM. The gist of the method:
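Cells (15000/well for TLR7, 20,000 for TLR8) were treated with compounds over 0.05 nM-50 μM final. After 22 h at 37° C, 5% CO2, SEAP was measured with HEK-Blue Detection reagent; percent inhibition was taken as reduction of agonist-plus-DMSO signal relative to a known inhibitor.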
In general terms: Reporter assays use an easily measured gene product as a stand-in for the process of interest.
For the compound `CCc1c(-c2ccc(OC)c(OC)c2)[nH]c2ccc(C3CCN(C(=O)CN4CCCC(C(=O)O)C4)CC3)cc12` (racemic) [Example 176, 1-(2-(4-(2-(3,4-dimethoxyphenyl)-3-ethyl-1H-indol-5-yl)piperidin-1-yl)-2-oxoethyl)piperidine-3-carboxylic acid], the IC50 worked out at 8920 nM. The figure for `CCc1c(-c2ccc(OC)c(OC)c2)[nH]c2ccc(C3CCN(C(=O)CN4CCCC(C(=O)N(CC)CC)C4)CC3)cc12` (single isomer, unassigned) [Example 178, 1-(2-(4-(2-(3,4-dimethoxyphenyl)-3-ethyl-1H-indol-5-yl)piperidin-1-yl)-2-oxoethyl)-N,N-diethylpiperidine-3-carboxamide] is 480 nM; for `CCc1c(-c2ccc(OC)c(OC)c2)[nH]c2ccc(C3CCN(C(=O)CN4CCCC(C(=O)N(CC)CC)C4)CC3)cc12` (single isomer, unassigned) [Example 179, 1-(2-(4-(2-(3,4-dimethoxyphenyl)-3-ethyl-1H-indol-5-yl)piperidin-1-yl)-2-oxoethyl)-N,N-diethylpiperidine-3-carboxamide] it is 280 nM; for `COc1ccc(-c2[nH]c3ccc(C4CCN(C5CCN(CC(C)C)CC5)CC4)cc3c2C)cc1OC` [Example 6, 2-(3,4-dimethoxyphenyl)-5-(1′-isobutyl-[1,4′-bipiperidin]-4-yl)-3-methyl-1H-indole] it is 1230 nM. Compound `COc1ccc(-c2[nH]c3ccc(C4CCN(C5CCN(Cc6ccccc6)CC5)CC4)cc3c2C)cc1OC` [Example 9, 5-(1′-benzyl-[1,4′-bipiperidin]-4-yl)-2-(3,4-dimethoxyphenyl)-3-methyl-1H-indole] showed an IC50 of 1550 nM. As for `COc1ccc(-c2[nH]c3ccc(C4CCN(C5CCN(C(C)C)CC5)CC4)cc3c2C)cc1OC` [Example 10, 2-(3,4-dimethoxyphenyl)-5-(1′-isopropyl-[1,4′-bipiperidin]-4-yl)-3-methyl-1H-indole], it took 606 nM to reach half-maximal inhibition (IC50). Against the preceding compound, the IC50 is about 2.6-fold lower. Compound `CNCCN1CCC(c2ccc3c(c2)c(C)c(-c2ccc(OC)c(OC)c2)n3C)CC1` [Example 114, 2-(4-(2-(3,4-dimethoxyphenyl)-1,3-dimethyl-1H-indol-5-yl)piperidin-1-yl)-N-methylethan-1-amine] yielded an IC50 of 5260 nM.

`COc1ccc(-c2[nH]c3cc(C)c(C4CCN(C5CCN(C(C)C)CC5)CC4)cc3c2C)cc1OC` [Example 115, 2-(3,4-dimethoxyphenyl)-5-(1′-isopropyl-[1,4′-bipiperidin]-4-yl)-3,6-dimethyl-1H-indole-di-trifluoroacetic acid] yielded an IC50 of 132 nM. This IC50 is about 40-fold lower than that of the compound before.

Regarding `CNCCN1CCC(c2ccc3[nH]c(-c4ccc(OC)c(OC)c4)c(CC(C)C)c3c2)CC1` [Example 116, trifluoroacetic acid], inhibition was half-maximal at 1290 nM (IC50). `COc1ccc(-c2[nH]c3ccc(C4CCN(C5CCN(CC(C)C)CC5)CC4)cc3c2Cl)cc1OC` [Example 120, 3-chloro-2-(3,4-dimethoxyphenyl)-5-(1′-isobutyl-[1,4′-bipiperidin]-4-yl)-1H-indole di-trifluoroacetic acid] registered an IC50 of 2740 nM. The compound `CCCc1c(-c2ccc(OC)c(OC)c2)[nH]c2ccc(C3CCN(C4CCN(CC(C)C)CC4)CC3)cc12` [Example 121, 2-(3,4-dimethoxyphenyl)-5-(1′-isobutyl-[1,4′-bipiperidin]-4-yl)-3-propyl-1H-indole-di-trifluoroacetic acid] yielded an IC50 of 661 nM. As for `CCc1c(-c2ccc(OC)c(OC)c2)[nH]c2ccc(C3CCNCC3)cc12` [Example 122, 2-(3,4-dimethoxyphenyl)-3-ethyl-5-(piperidin-4-yl)-1H-indole], the IC50 was determined as 57 nM. As for `CCc1c(-c2ccc(OC)c(OC)c2)[nH]c2ccc(C3CCN(C4CCN(CC(C)C)CC4)CC3)cc12` [Example 123, 2-(3,4-dimethoxyphenyl)-3-ethyl-5-(1′-isobutyl-[1,4′-bipiperidin]-4-yl)-1H-indole-di-trifluoroacetic acid], inhibition was half-maximal at 398 nM (IC50).

As for `CCc1c(-c2ccc(OC)c(OC)c2)[nH]c2ccc(C3CCN(C4CCN(Cc5cnc(C)o5)CC4)CC3)cc12` [Example 124, 5-((4-(2-(3,4-dimethoxyphenyl)-3-ethyl-1H-indol-5-yl)-[1,4′-bipiperidin]-1′-yl)methyl)-2-methyloxazole], the IC50 is 1870 nM.

`CCc1c(-c2ccc(OC)c(OC)c2)[nH]c2ccc(C3CCN(C4CCN(Cc5c[nH]cn5)CC4)CC3)cc12` [Example 125, 5-(1′-((1H-imidazol-4-yl)methyl)-[1,4′-bipiperidin]-4-yl)-2-(3,4-dimethoxyphenyl)-3-ethyl-1H-indole] gave a half-maximal inhibitory concentration (IC50) of 182 nM.

On to `CCc1c(-c2ccc(OC)c(OC)c2)[nH]c2ccc(C3CCN(C4CCN(Cc5coc(C)n5)CC4)CC3)cc12` [Example 126, 4-((4-(2-(3,4-dimethoxyphenyl)-3-ethyl-1H-indol-5-yl)-[1,4′-bipiperidin]-1′-yl)methyl)-2-methyloxazole], for which half-maximal inhibition (IC50) required 920 nM. As to `CCOC(=O)c1c(C)[nH]c(CN2CCC(N3CCC(c4ccc5[nH]c(-c6ccc(OC)c(OC)c6)c(CC)c5c4)CC3)CC2)c1C` [Example 127, ethyl 5-((4-(2-(3,4-dimethoxyphenyl)-3-ethyl-1H-indol-5-yl)-[1,4′-bipiperidin]-1′-yl)methyl)-2,4-dimethyl-1H-pyrrole-3-carboxylate], the IC50 turned out to be 1620 nM. This IC50 is about 1.8-fold higher than that of the compound before.

`CCc1c(-c2ccc(OC)c(OC)c2)[nH]c2ccc(C3CCN(C4CCN(Cc5cc6ccccc6[nH]5)CC4)CC3)cc12` [Example 128, 5-(1′-((1H-indol-2-yl)methyl)-[1,4′-bipiperidin]-4-yl)-2-(3,4-dimethoxyphenyl)-3-ethyl-1H-indole] gave an IC50 of 3280 nM.

For `CCc1c(-c2ccc(OC)c(OC)c2)[nH]c2ccc(C3CCN(C4CCN(Cc5csnn5)CC4)CC3)cc12` [Example 130, 4-((4-(2-(3,4-dimethoxyphenyl)-3-ethyl-1H-indol-5-yl)-[1,4′-bipiperidin]-1′-yl)methyl)-1,2,3-thiadiazole], the IC50 came to 4170 nM. `CCc1c(-c2ccc(OC)c(OC)c2)[nH]c2ccc(C3CCN(C4CCN(Cc5cc(C)n[nH]5)CC4)CC3)cc12` [Example 131, 2-(3,4-dimethoxyphenyl)-3-ethyl-5-(1′-((3-methyl-1H-pyrazol-5-yl)methyl)-[1,4′-bipiperidin]-4-yl)-1H-indole] registered a half-inhibitory concentration (IC50) of 371 nM.

In the case of `CCc1c(-c2ccc(OC)c(OC)c2)[nH]c2ccc(C3CCN(C4CCN(Cc5cc(C)nn5C)CC4)CC3)cc12` [Example 132, 2-(3,4-dimethoxyphenyl)-5-(1′-((1,3-dimethyl-1H-pyrazol-5-yl)methyl)-[1,4′-bipiperidin]-4-yl)-3-ethyl-1H-indole], the IC50 was at least 50000 nM. In the case of `CCc1c(-c2ccc(OC)c(OC)c2)[nH]c2ccc(C3CCN(C4CCN(Cc5ccn(C)n5)CC4)CC3)cc12` [Example 133, 2-(3,4-dimethoxyphenyl)-3-ethyl-5-(1′-((1-methyl-1H-pyrazol-3-yl)methyl)-[1,4′-bipiperidin]-4-yl)-1H-indole], the IC50 was 208 nM. In other words, the sub-micromolar range. Compound `CCc1c(-c2ccc(OC)c(OC)c2)[nH]c2ccc(C3CCN(C4CCN(Cc5cc6ccccc6n5C)CC4)CC3)cc12` [Example 137, 2-(3,4-dimethoxyphenyl)-3-ethyl-5-(1′-((1-methyl-1H-indol-2-yl)methyl)-[1,4′-bipiperidin]-4-yl)-1H-indole] came in with an IC50 of 4690 nM.

Regarding `CCc1c(-c2ccc(OC)c(OC)c2)[nH]c2ccc(C3CCN(C4CCN(Cc5c(C)noc5C)CC4)CC3)cc12` [Example 138, 4-((4-(2-(3,4-dimethoxyphenyl)-3-ethyl-1H-indol-5-yl)-[1,4′-bipiperidin]-1′-yl)methyl)-3,5-dimethylisoxazole], inhibition was half-maximal at 3510 nM (IC50).

For the compound `CCc1c(-c2ccc(OC)c(OC)c2)[nH]c2ccc(C3CCN(C4CCN(Cc5sccc5C)CC4)CC3)cc12` [Example 139, 2-(3,4-dimethoxyphenyl)-3-ethyl-5-(1′-((3-methylthiophen-2-yl)methyl)-[1,4′-bipiperidin]-4-yl)-1H-indole], the IC50 came to 579 nM. The figure for `CCc1c(-c2ccc(OC)c(OC)c2)[nH]c2ccc(C3CCN(C4CCN(Cc5ccc(C)s5)CC4)CC3)cc12` [Example 140, 2-(3,4-dimethoxyphenyl)-3-ethyl-5-(1′-((5-methylthiophen-2-yl)methyl)-[1,4′-bipiperidin]-4-yl)-1H-indole] is 1020 nM.

For the origin of these results see patent US11180474B2 (BRISTOL-MYERS SQUIBB COMPANY, priority 2016, dated 2021).
